# Test system: 4 PI3K isoforms (Human recombinant GST-PI3K)
# Experiment: PI3K scintillation proximity assay, best IC50 obtained with the four isoforms (alpha, beta, delta, gamma)
# Format: biochemical
# Conditions: best IC50 obtained with the four isoforms of PI3K; read-out: Best potency measured on the 4 PI3K isoforms
row,IC50 [nM],SMILES
1,15,"COc1ccc2c(c1)S(=O)(=O)Cc1c(C(=O)N3CCOCC3)nn([C@H]3CCCN(CCN4CC(F)(F)C4)C3)c1-2 (single isomer, unassigned) [Example 382, 1-{1-[2-(3,3-difluoroazetidin-1-yl)ethyl]piperidin-3-yl}-7-methoxy-3-(morpholin-4-ylcarbonyl)-1,4-dihydrothiochromeno[4,3-c]pyrazole 5,5-dioxide]"
2,24,"COc1ccc2c(c1)S(=O)(=O)Cc1c(C(=O)N3CCOCC3)nn([C@H]3CCCN(CCN4CCOCC4)C3)c1-2 (single isomer, unassigned) [Example 383, 7-methoxy-3-(morpholin-4-ylcarbonyl)-1-[1-(2-morpholin-4-ylethyl)piperidin-3-yl]-1,4-dihydrothiochromeno[4,3-c]pyrazole 5,5-dioxide]"
3,19,"COc1ccc2c(c1)S(=O)(=O)Cc1c(C(=O)N3CCOCC3)nn([C@H]3CCCN(CCN4CCC(F)CC4)C3)c1-2 (single isomer, unassigned) [Example 384, 1-{1-[2-(4-fluoropiperidin-1-yl)ethyl]piperidin-3-yl}-7-methoxy-3-(morpholin-4-ylcarbonyl)-1,4-dihydrothiochromeno[4,3-c]pyrazole 5,5-dioxide]"
4,29,"CC1CN(CCN2CCC[C@H](n3nc(C(=O)N4CCOCC4)c4c3-c3ccccc3S(=O)(=O)C4)C2)CCO1 (single isomer, unassigned) [Example 385, 1-{1-[2-(2-methylmorpholin-4-yl)ethyl]piperidin-3-yl}-3-(morpholin-4-ylcarbonyl)-1,4-dihydrothiochromeno[4,3-c]pyrazole 5,5-dioxide]"
5,30,"O=C(c1nn([C@H]2CCCN(CCN3CCOCC3)C2)c2c1CS(=O)(=O)c1c(Cl)cccc1-2)N1CCOCC1 (single isomer, unassigned) [Example 386, 6-chloro-3-(morpholin-4-ylcarbonyl)-1-[1-(2-morpholin-4-ylethyl)piperidin-3-yl]-1,4-dihydrothiochromeno[4,3-c]pyrazole 5,5-dioxide]"
6,93,"COCCN1CCC[C@H](n2nc(C(=O)N3CCOCC3)c3c2-c2ccc(OC)cc2S(=O)(=O)C3)C1 (single isomer, unassigned) [Example 394, 7-methoxy-1-[1-(2-methoxyethyl)piperidin-3-yl]-3-(morpholin-4-ylcarbonyl)-1,4-dihydrothiochromeno[4,3-c]pyrazole 5,5-dioxide]"
7,1440,"O=C(c1nn([C@H]2CCN(C3CCOCC3)C2)c2c1CS(=O)(=O)c1ccccc1-2)N1CCOCC1 (single isomer, unassigned) [Example 402]"
8,55,"O=C(c1nn([C@@H]2CCN(CCN3CCC(F)CC3)C2)c2c1CS(=O)(=O)c1ccccc1-2)N1CCOCC1 (single isomer, unassigned) [Example 409, 1-{1-[2-(4-fluoropiperidin-1-yl)ethyl]pyrrolidin-3-yl}-3-(morpholin-4-ylcarbonyl)-1,4-dihydrothiochromeno[4,3-c]pyrazole 5,5-dioxide]"
9,3690,"O=C(c1nn([C@H]2CCN(CCN3CCC(F)CC3)C2)c2c1CS(=O)(=O)c1ccccc1-2)N1CCOCC1 (single isomer, unassigned) [Example 410, 1-{1-[2-(4-fluoropiperidin-1-yl)ethyl]pyrrolidin-3-yl}-3-(morpholin-4-ylcarbonyl)-1,4-dihydrothiochromeno[4,3-c]pyrazole 5,5-dioxide]"
10,444,"O=C(c1nn([C@@H]2CCCN(CCn3ccnc3)C2)c2c1CS(=O)(=O)c1ccccc1-2)N1CCOCC1 (single isomer, unassigned) [Example 411, 1-{1-[2-(1H-imidazol-1-yl)ethyl]piperidin-3-yl}-3-(morpholin-4-ylcarbonyl)-1,4-dihydrothiochromeno[4,3-c]pyrazole 5,5-dioxide]"
11,5600,"O=C(c1nn([C@H]2CCCN(CCn3ccnc3)C2)c2c1CS(=O)(=O)c1ccccc1-2)N1CCOCC1 (single isomer, unassigned) [Example 412, 1-{1-[2-(1H-imidazol-1-yl)ethyl]piperidin-3-yl}-3-(morpholin-4-ylcarbonyl)-1,4-dihydrothiochromeno[4,3-c]pyrazole 5,5-dioxide]"
12,16,"O=C(c1nn([C@H]2CCCN(CCC3CCOCC3)C2)c2c1CS(=O)(=O)c1ncccc1-2)N1CCOCC1 (single isomer, unassigned) [Example 422, 3-(morpholin-4-ylcarbonyl)-1-{1-[2-(tetrahydro-2H-pyran-4-yl)ethyl]piperidin-3-yl}-1,4-dihydropyrazolo[3′,4′:4,5]thiopyrano[2,3-b]pyridine 5,5-dioxide]"
13,99,"O=C(c1nn([C@@H]2CCCN(CCC3CCOCC3)C2)c2c1CS(=O)(=O)c1ncccc1-2)N1CCOCC1 (single isomer, unassigned) [Example 423, 3-(morpholin-4-ylcarbonyl)-1-{1-[2-(tetrahydro-2H-pyran-4-yl)ethyl]piperidin-3-yl}-1,4-dihydropyrazolo[3′,4′:4,5]thiopyrano[2,3-b]pyridine 5,5-dioxide]"
14,59,"COc1cccc2c1S(=O)(=O)Cc1c(C(=O)N3CCOCC3)nn([C@H]3CCCN(CCN4CCOCC4)C3)c1-2 (single isomer, unassigned) [Example 424, 6-methoxy-3-(morpholin-4-ylcarbonyl)-1-[1-(2-morpholin-4-ylethyl)piperidin-3-yl]-1,4-dihydrothiochromeno[4,3-c]pyrazole 5,5-dioxide]"
15,128,"COCCN1CCC[C@H](n2nc(C(=O)N3CCOCC3)c3c2-c2cccc(OC)c2S(=O)(=O)C3)C1 (single isomer, unassigned) [Example 428, 6-methoxy-1-[1-(2-methoxyethyl)piperidin-3-yl]-3-(morpholin-4-ylcarbonyl)-1,4-dihydrothiochromeno[4,3-c]pyrazole 5,5-dioxide]"
16,48,"COC(=O)CCN1CCC[C@H](n2nc(C(=O)N3CCOCC3)c3c2-c2ccccc2S(=O)(=O)C3)C1 (single isomer, unassigned) [Example 433, methyl 3-{3-[3-(morpholin-4-ylcarbonyl)-5,5-dioxidothiochromeno[4,3-c]pyrazol-1(4H)-yl]piperidin-1-yl}propanoate]"
17,31,"COCCN1CCC[C@H](n2nc(C(=O)N3CCOCC3)c3c2-c2cccc(F)c2S(=O)(=O)C3)C1 (single isomer, unassigned) [Example 434, 6-Fluoro-1-[1-(2-methoxyethyl)piperidin-3-yl]-3-(morpholin-4-ylcarbonyl)-1,4-dihydrothiochromeno[4,3-c]pyrazole 5,5-dioxide]"
18,80,"O=C1CCCN1CCN1CCC[C@H](n2nc(C(=O)N3CCOCC3)c3c2-c2ccccc2S(=O)(=O)C3)C1 (single isomer, unassigned) [Example 440, 1-(2-{3-[3-(morpholin-4-ylcarbonyl)-5,5-dioxidothiochromeno[4,3-c]pyrazol-1(4H)-yl]piperidin-1-yl}ethyl)pyrrolidin-2-one]"
19,40,"COc1cccc2c1S(=O)(=O)Cc1c(C(=O)N3CCOCC3)nn([C@H]3CCCN(CCN4CC(F)(F)C4)C3)c1-2 (single isomer, unassigned) [Example 442, 1-{1-[2-(3,3-difluoroazetidin-1-yl)ethyl]piperidin-3-yl}-6-methoxy-3-(morpholin-4-ylcarbonyl)-1,4-dihydrothiochromeno[4,3-c]pyrazole 5,5-dioxide]"
20,62,"COc1cccc2c1S(=O)(=O)Cc1c(C(=O)N3CCOCC3)nn([C@H]3CCCN(CCN4CC(F)C4)C3)c1-2 (single isomer, unassigned) [Example 443, 1-{1-[2-(3-fluoroazetidin-1-yl)ethyl]piperidin-3-yl}-6-methoxy-3-(morpholin-4-ylcarbonyl)-1,4-dihydrothiochromeno[4,3-c]pyrazole 5,5-dioxide]"
21,73,"NCCN1CCC[C@H](n2nc(C(=O)N3CCOCC3)c3c2-c2ccccc2S(=O)(=O)C3)C1 (single isomer, unassigned) [Example 452, 2-{3-[3-(morpholin-4-ylcarbonyl)-5,5-dioxidothiochromeno[4,3-c]pyrazol-1(4H)-yl]piperidin-1-yl}ethanamine]"
22,96,"COCCN1CCC[C@H](n2nc(C(=O)N3CCOCC3)c3c2-c2cccc(C)c2S(=O)(=O)C3)C1 (single isomer, unassigned) [Example 467, 1-[1-(2-methoxyethyl)piperidin-3-yl]-6-methyl-3-(morpholin-4-ylcarbonyl)-1,4-dihydrothiochromeno[4,3-c]pyrazole 5,5-dioxide]"
23,48,"O=C(c1nn(C2CCCN(c3cccnc3)C2)c2c1CS(=O)(=O)c1ccccc1-2)N1CCOCC1 (single isomer, unassigned) [Example 484, 3-(morpholin-4-ylcarbonyl)-1-[1-pyridin-3-ylpiperidin-3-yl]-1,4-dihydrothiochromeno[4,3-c]pyrazole 5,5-dioxide]"
24,25,"O=C(c1nn([C@H]2CCCN(CC3CCOCC3)C2)c2c1CS(=O)(=O)c1ccccc1-2)N1CCOCC1 (stereo in doubt) [Example 361, 3-(morpholin-4-ylcarbonyl)-1-[1-(tetrahydro-2H-pyran-4-ylmethyl)piperidin-3-yl]-1,4-dihydrothiochromeno[4,3-c]pyrazole 5,5-dioxide]"
25,80,"O=C(c1nn([C@H]2CCCN(C3CCOCC3)C2)c2c1CS(=O)(=O)c1ccccc1-2)N1CCOCC1 (stereo in doubt) [Example 374, 3-(morpholin-4-ylcarbonyl)-1-[1-(tetrahydro-2H-pyran-4-yl)piperidin-3-yl]-1,4-dihydrothiochromeno[4,3-c]pyrazole 5,5-dioxide]"
26,24,"COc1ccc2c(c1)S(=O)(=O)Cc1c(C(=O)N3CCOCC3)nn([C@H]3CCCN(C4CCCOC4)C3)c1-2 (stereo in doubt) [Example 389, 7-methoxy-3-(morpholin-4-ylcarbonyl)-1-[1-(tetrahydro-2H-pyran-3-yl)piperidin-3-yl]-1,4-dihydrothiochromeno[4,3-c]pyrazole 5,5-dioxide]"
27,44,"COc1ccc2c(c1)S(=O)(=O)Cc1c(C(=O)N3CCOCC3)nn([C@H]3CCCN(CC4CCOC4)C3)c1-2 (stereo in doubt) [Example 395, 7-methoxy-3-(morpholin-4-ylcarbonyl)-1-[1-(tetrahydrofuran-3-ylmethyl)piperidin-3-yl]-1,4-dihydrothiochromeno[4,3-c]pyrazole 5,5-dioxide]"

# — patent publication US9073940B2, “Tricyclic pyrazol amine derivatives” (MERCK SERONO SA, priority 2009, dated 2015)
